# Measurements: US10781224B2, “Bis(oxymethyl)phosphinic acid and biogenic metal salts thereof as regulators of plant growth and development” (priority 2016, dated 2020)
# Assays:
# [1] = test system: winter wheat (Vershin variety); assay: Winter wheat seed treatment with BHMPA salts: germinating power (length and mass of roots and sprouts); type: in vivo
# Procedure: (§1) Experimental versions—soaking seeds in BHMPA solutions and solutions of BHMPA Ca, Mg, Na, Co, Mn, Cu, and Zn salts at 1·10^−6-1·10^−12% concentrations (doses). The studies were conducted in laboratory in Petri dishes; seed bed—two layers of filter paper. 50 seeds soaked in water (control) and in the solutions of the tested compounds (experimental) were placed into each dish. Wheat, corn, and rice seeds were exposed for one hour.
# (§2) Seed germination energy and rate were calculated in percent as an arithmetic mean of the four experimental results (germination energy on the 4th day, wheat germination on the 8th day, rice and corn germination—on the 7th day). Germination was determined based on the germinating power indicators (length of the roots and sprouts and their wet and dry mass per 100 shoots).
# (§3) The effect of pre-sowing seed treatment with the claimed BHMPA salts of biogenic metals was studied on winter wheat (Vershin variety), corn (Krasnodar 385 MV variety), and rice (Diamant variety).
# The above data describe the seed viability only at the initial stage of germination, while the germination ability at the later stage of germination is defined by the initial germinating power. The method for the determination of the germinating power comprises measuring the height of the sprouts and primary roots, as well as the biomass and the dry mass thereof per 100 seedlings. [M. A. Kartuzova. Initial Germinating Power as Method of Biological Assessment of Seed Quality. Selection and Seed Farming, #2, 1953].
# [2] = test system: corn (Krasnodar 385 MV variety); assay: Corn seed treatment with BHMPA salts: germination energy and germination rate; type: in vivo
# Procedure: Control—Soaking Seeds in Water;
# as §1
# Analysis was conducted according to the government standards GOST 12038-84 “Crop seeds. Technical conditions for determining the germination energy and germination rate”, GOST 12044-93 “Crop seeds. Methods for determining disease contamination.”
# as §2, §3
# [3] = comparative study, 1·10^−10% solution
# [4] = comparative study vs Melaphen, 1·10^−7% solution
structure (smiles),measurement,setting,value
"O.O.O=P([O-])(CO)CO.O=P([O-])(CO)CO.[Co+2] [Co-salt, Cobalt BHMPA Salt]","Length, root",[1]; 1·10^−6% solution,6.0 cm
same,"Length, root, + % to control",[1]; 1·10^−6% solution,−5%
same,"Length, sprout",[1]; 1·10^−6% solution,5.1 cm
same,"Length, sprout, + % to control",[1]; 1·10^−6% solution,−4%
same,"Mass, dry, root",[1]; 1·10^−6% solution,0.43 g/100 plantlings
same,"Mass, dry, root, + % to control",[1]; 1·10^−6% solution,−6.5%
same,"Mass, dry, sprout",[1]; 1·10^−6% solution,0.41 g/100 plantlings
same,"Mass, dry, sprout, + % to control",[1]; 1·10^−6% solution,−9%
same,"Mass, wet, root",[1]; 1·10^−6% solution,2.99 g/100 plantlings
same,"Mass, wet, root, + % to control",[1]; 1·10^−6% solution,3.5%
same,"Mass, wet, sprout",[1]; 1·10^−6% solution,3.30 g/100 plantlings
same,"Mass, wet, sprout, + % to control",[1]; 1·10^−6% solution,−3.5%
same,"Length, root",[1]; 1·10^−7% solution,6.3 cm
same,"Length, root, + % to control",[1]; 1·10^−7% solution,0%
same,"Length, sprout",[1]; 1·10^−7% solution,5.4 cm
same,"Length, sprout, + % to control",[1]; 1·10^−7% solution,2%
same,"Mass, dry, root",[1]; 1·10^−7% solution,0.50 g/100 plantlings
same,"Mass, dry, root, + % to control",[1]; 1·10^−7% solution,9%
same,"Mass, dry, sprout",[1]; 1·10^−7% solution,0.45 g/100 plantlings
same,"Mass, dry, sprout, + % to control",[1]; 1·10^−7% solution,0%
same,"Mass, wet, root",[1]; 1·10^−7% solution,3.06 g/100 plantlings
same,"Mass, wet, root, + % to control",[1]; 1·10^−7% solution,6%
same,"Mass, wet, sprout",[1]; 1·10^−7% solution,3.47 g/100 plantlings
same,"Mass, wet, sprout, + % to control",[1]; 1·10^−7% solution,1.5%
same,"Length, root",[1]; 1·10^−8% solution,6.4 cm
same,"Length, root, + % to control",[1]; 1·10^−8% solution,1.6%
same,"Length, sprout",[1]; 1·10^−8% solution,5.5 cm
same,"Length, sprout, + % to control",[1]; 1·10^−8% solution,4%
same,"Mass, dry, root",[1]; 1·10^−8% solution,0.54 g/100 plantlings
same,"Mass, dry, root, + % to control",[1]; 1·10^−8% solution,17%
same,"Mass, dry, sprout",[1]; 1·10^−8% solution,0.53 g/100 plantlings
same,"Mass, dry, sprout, + % to control",[1]; 1·10^−8% solution,18%
same,"Mass, wet, root",[1]; 1·10^−8% solution,3.29 g/100 plantlings
same,"Mass, wet, root, + % to control",[1]; 1·10^−8% solution,14%
same,"Mass, wet, sprout",[1]; 1·10^−8% solution,3.74 g/100 plantlings
same,"Mass, wet, sprout, + % to control",[1]; 1·10^−8% solution,9%
same,"Length, root",[1]; 1·10^−9% solution,6.5 cm
same,"Length, root, + % to control",[1]; 1·10^−9% solution,3%
same,"Length, sprout",[1]; 1·10^−9% solution,5.7 cm
same,"Length, sprout, + % to control",[1]; 1·10^−9% solution,7.5%
same,"Mass, dry, root",[1]; 1·10^−9% solution,0.55 g/100 plantlings
same,"Mass, dry, root, + % to control",[1]; 1·10^−9% solution,19.5%
same,"Mass, dry, sprout",[1]; 1·10^−9% solution,0.57 g/100 plantlings
same,"Mass, dry, sprout, + % to control",[1]; 1·10^−9% solution,27%
same,"Mass, wet, root",[1]; 1·10^−9% solution,3.35 g/100 plantlings
same,"Mass, wet, root, + % to control",[1]; 1·10^−9% solution,16%
same,"Mass, wet, sprout",[1]; 1·10^−9% solution,4.04 g/100 plantlings
same,"Mass, wet, sprout, + % to control",[1]; 1·10^−9% solution,18%
same,"Length, root",[1]; 1·10^−10% solution,6.6 cm
same,"Length, root, + % to control",[1]; 1·10^−10% solution,5%
same,"Length, sprout",[1]; 1·10^−10% solution,6.1 cm
same,"Length, sprout, + % to control",[1]; 1·10^−10% solution,15%
same,"Mass, dry, root",[1]; 1·10^−10% solution,0.56 g/100 plantlings
same,"Mass, dry, root, + % to control",[1]; 1·10^−10% solution,22%
same,"Mass, dry, sprout",[1]; 1·10^−10% solution,0.67 g/100 plantlings
same,"Mass, dry, sprout, + % to control",[1]; 1·10^−10% solution,49%
same,"Mass, wet, root",[1]; 1·10^−10% solution,3.57 g/100 plantlings
same,"Mass, wet, root, + % to control",[1]; 1·10^−10% solution,23.5%
same,"Mass, wet, sprout",[1]; 1·10^−10% solution,4.18 g/100 plantlings
same,"Mass, wet, sprout, + % to control",[1]; 1·10^−10% solution,22%
same,"Length, root",[1]; 1·10^−11% solution,6.5 cm
same,"Length, root, + % to control",[1]; 1·10^−11% solution,3%
same,"Length, sprout",[1]; 1·10^−11% solution,5.9 cm
same,"Length, sprout, + % to control",[1]; 1·10^−11% solution,11%
same,"Mass, dry, root",[1]; 1·10^−11% solution,0.54 g/100 plantlings
same,"Mass, dry, root, + % to control",[1]; 1·10^−11% solution,17%
same,"Mass, dry, sprout",[1]; 1·10^−11% solution,0.56 g/100 plantlings
same,"Mass, dry, sprout, + % to control",[1]; 1·10^−11% solution,24%
same,"Mass, wet, root",[1]; 1·10^−11% solution,3.33 g/100 plantlings
same,"Mass, wet, root, + % to control",[1]; 1·10^−11% solution,15%
same,"Mass, wet, sprout",[1]; 1·10^−11% solution,3.78 g/100 plantlings
same,"Mass, wet, sprout, + % to control",[1]; 1·10^−11% solution,10.5%
same,"Length, root",[1]; 1·10^−12% solution,6.2 cm
same,"Length, root, + % to control",[1]; 1·10^−12% solution,−1.5%
same,"Length, sprout",[1]; 1·10^−12% solution,5.4 cm
same,"Length, sprout, + % to control",[1]; 1·10^−12% solution,2%
same,"Mass, dry, root",[1]; 1·10^−12% solution,0.52 g/100 plantlings
same,"Mass, dry, root, + % to control",[1]; 1·10^−12% solution,13%
same,"Mass, dry, sprout",[1]; 1·10^−12% solution,0.48 g/100 plantlings
same,"Mass, dry, sprout, + % to control",[1]; 1·10^−12% solution,7%
same,"Mass, wet, root",[1]; 1·10^−12% solution,3.06 g/100 plantlings
same,"Mass, wet, root, + % to control",[1]; 1·10^−12% solution,6%
same,"Mass, wet, sprout",[1]; 1·10^−12% solution,3.49 g/100 plantlings
same,"Mass, wet, sprout, + % to control",[1]; 1·10^−12% solution,2%
same,"Length, root",[1]; [3],10.4 cm
same,"Length, root, + % to control",[1]; [3],20%
same,"Length, sprout",[1]; [3],7.4 cm
same,"Length, sprout, + % to control",[1]; [3],19%
same,"Mass, dry, root",[1]; [3],0.68 g/100 plantlings
same,"Mass, dry, root, + % to control",[1]; [3],10%
same,"Mass, dry, sprout",[1]; [3],0.55 g/100 plantlings
same,"Mass, dry, sprout, + % to control",[1]; [3],8%
same,"Mass, wet, root",[1]; [3],5.97 g/100 plantlings
same,"Mass, wet, root, + % to control",[1]; [3],65%
same,"Mass, wet, sprout",[1]; [3],5.16 g/100 plantlings
same,"Mass, wet, sprout, + % to control",[1]; [3],30%
same,Germination energy,[2]; 1·10^−6% solution,80.0%
same,Germination rate,[2]; 1·10^−6% solution,82.2%
same,Germination energy,[2]; 1·10^−7% solution,84.3%
same,Germination rate,[2]; 1·10^−7% solution,90.0%
same,Germination rate,"[2]; 1·10^−7% solution, listed as Co",86.7%
same,Germination energy,[2]; 1·10^−8% solution,82.0%
same,Germination rate,[2]; 1·10^−8% solution,84.7%
same,Germination energy,[2]; 1·10^−9% solution,80.7%
same,Germination rate,[2]; 1·10^−9% solution,83.0%
same,Germination energy,[2]; 1·10^−10% solution,79.2%
same,Germination rate,[2]; 1·10^−10% solution,81.7%
same,Germination energy,[2]; 1·10^−11% solution,78.0%
same,Germination rate,[2]; 1·10^−11% solution,80.8%
same,Germination energy,[2]; 1·10^−12% solution,76.8%
same,Germination rate,[2]; 1·10^−12% solution,79.2%
same,Germination energy,[2]; [4],87.0%
same,Germination rate,[2]; [4],96.7%
